Measurements as given in ChEMBL document CHEMBL1201862, “PubChem BioAssay data set” (2004).
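Cultured in 96-well plates, cells were exposed to test compound for 48 hours across five concentrations. GI50 is the concentration that inhibits growth by half.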 Activity calls are given as the source filed them. Rule as the data show it: active = GI50 up to about 1.1 µM and inactive = higher.

Columns and labels:
Assay in all cases: NCI-60 cell line screen, 48 h
SN12C = tested on: SN12C
UO-31 = tested on: UO-31
CAKI-1 = tested on: CAKI-1
Malme-3M = tested on: Malme-3M
MOLT-4 = tested on: MOLT-4
SF-295 = tested on: SF-295
SW-620 = tested on: SW-620
A498 = tested on: A498
MDA-N = tested on: MDA-N
NCI/ADR-RES = tested on: NCI/ADR-RES
SF-268 = tested on: SF-268
ACHN = tested on: ACHN
COLO 205 = tested on: COLO 205
OVCAR-3 = tested on: OVCAR-3
LOX IMVI = tested on: LOX IMVI
OVCAR-4 = tested on: OVCAR-4
OVCAR-5 = tested on: OVCAR-5
CCRF-CEM = tested on: CCRF-CEM
HCC 2998 = tested on: HCC 2998

Measured: GI50

NC(=O)c1csc(-c2ccc(CO)o2)n1
inactive: SN12C > 100 µM | UO-31 > 100 µM | CAKI-1 > 100 µM | Malme-3M > 100 µM | MOLT-4 > 100 µM | SF-295 > 100 µM | SW-620 > 100 µM | A498 > 100 µM | MDA-N > 100 µM | NCI/ADR-RES > 100 µM | SF-268 > 100 µM | ACHN > 100 µM | COLO 205 > 100 µM | OVCAR-3 > 100 µM | LOX IMVI > 100 µM | OVCAR-4 > 100 µM | OVCAR-5 > 100 µM

C[C@H](O)CCC(=O)c1ccoc1
inactive: SN12C > 100 µM | UO-31 > 100 µM | CAKI-1 > 100 µM | CCRF-CEM > 100 µM | Malme-3M > 100 µM | MOLT-4 > 100 µM | SF-295 > 100 µM | SW-620 > 100 µM | A498 > 100 µM | HCC 2998 > 66.1 µM | SF-268 > 100 µM | ACHN > 100 µM | COLO 205 > 100 µM | OVCAR-3 > 100 µM | LOX IMVI > 100 µM | OVCAR-4 > 100 µM | OVCAR-5 > 100 µM

CCOc1ncn(-c2ccc(NC(=S)NC34CC5CC(CC(C5)C3)C4)cc2)n1
inactive: SN12C > 100 µM | UO-31 > 100 µM | CCRF-CEM > 100 µM | MOLT-4 > 100 µM | SF-295 48.4 µM | SW-620 > 100 µM | MDA-N > 100 µM | HCC 2998 > 100 µM | SF-268 > 100 µM | COLO 205 > 100 µM | OVCAR-3 > 100 µM | LOX IMVI > 100 µM | OVCAR-4 22.3 µM | OVCAR-5 > 100 µM

NC(=S)N1N=C2c3ccccc3CC[C@@H]2[C@@H]1c1ccccc1
inactive: SN12C 5.05 µM | UO-31 14.2 µM | CAKI-1 5.01 µM | CCRF-CEM 3.24 µM | Malme-3M 5.4 µM | MOLT-4 4.05 µM | SF-295 3.13 µM | SW-620 3.84 µM | A498 13.2 µM | HCC 2998 6.78 µM | SF-268 10.2 µM | ACHN 7.94 µM | COLO 205 3.72 µM | OVCAR-3 2.92 µM | LOX IMVI 5.86 µM | OVCAR-4 23.8 µM | OVCAR-5 24.3 µM

Cc1cc2ccccc2oc(=O)/c1=N\Nc1ccccc1
inactive: SN12C 65.3 µM | UO-31 24.9 µM | CAKI-1 37.4 µM | CCRF-CEM > 100 µM | Malme-3M > 100 µM | MOLT-4 > 100 µM | SF-295 32.6 µM | SW-620 23 µM | A498 > 100 µM | MDA-N > 100 µM | NCI/ADR-RES 32.3 µM | HCC 2998 > 100 µM | ACHN 22.6 µM | COLO 205 > 100 µM | OVCAR-3 > 100 µM | LOX IMVI 60.1 µM | OVCAR-4 48.1 µM | OVCAR-5 > 100 µM

Cc1ccc(/C=N/NS(=O)(=O)c2ccccc2)cc1C
inactive: SN12C > 100 µM | UO-31 > 100 µM | CAKI-1 68.7 µM | CCRF-CEM > 100 µM | Malme-3M > 100 µM | MOLT-4 > 100 µM | SF-295 45.7 µM | SW-620 > 100 µM | A498 59.4 µM | HCC 2998 > 100 µM | SF-268 > 100 µM | ACHN > 100 µM | COLO 205 > 100 µM | OVCAR-3 > 100 µM | LOX IMVI 88.1 µM | OVCAR-4 > 100 µM | OVCAR-5 > 100 µM

COC(=O)/C=C/c1c(CC=C(C)C)ncn1C
inactive: SN12C 88.5 µM | UO-31 28.2 µM | CAKI-1 > 68.1 µM | CCRF-CEM > 41.3 µM | Malme-3M > 100 µM | MOLT-4 5.31 µM | SF-295 24.4 µM | SW-620 6.79 µM | A498 > 84.1 µM | HCC 2998 54.6 µM | SF-268 > 66.7 µM | ACHN > 76.7 µM | COLO 205 20.9 µM | OVCAR-3 16.9 µM | LOX IMVI 35.7 µM | OVCAR-4 84.9 µM | OVCAR-5 > 100 µM

COC(=O)c1nc(NC#N)nc(O)c1C
inactive: SN12C > 100 µM | UO-31 > 51.8 µM | CAKI-1 > 77.3 µM | CCRF-CEM 78 µM | Malme-3M > 100 µM | MOLT-4 > 100 µM | SF-295 > 100 µM | SW-620 > 100 µM | A498 > 100 µM | HCC 2998 > 100 µM | SF-268 > 78.9 µM | ACHN > 73.6 µM | COLO 205 > 100 µM | OVCAR-3 > 100 µM | LOX IMVI > 100 µM | OVCAR-4 > 100 µM | OVCAR-5 > 100 µM

C=C(CN(C)C)C(=O)c1ccccc1Cl
inactive: SN12C 20.9 µM | UO-31 18.9 µM | CAKI-1 17.1 µM | CCRF-CEM 5.7 µM | Malme-3M 16.2 µM | MOLT-4 6.68 µM | SF-295 > 65.3 µM | SW-620 13.3 µM | A498 36.8 µM | HCC 2998 26.5 µM | SF-268 21.9 µM | ACHN 17.6 µM | COLO 205 13.9 µM | OVCAR-3 19.7 µM | LOX IMVI 17.8 µM | OVCAR-4 20.4 µM | OVCAR-5 > 43 µM

CCOc1ccc(NC(=O)C2=C(C)NC(C)=C(C(=O)Nc3ccc(OCC)cc3)C2c2ccc([N+](=O)[O-])cc2)cc1
inactive: SN12C 42.9 µM | UO-31 17.7 µM | CAKI-1 30 µM | CCRF-CEM 13.3 µM | Malme-3M 24.4 µM | MOLT-4 7.1 µM | SF-295 38 µM | SW-620 22.3 µM | A498 6.32 µM | HCC 2998 22.1 µM | SF-268 27.4 µM | ACHN 21.1 µM | COLO 205 17.8 µM | OVCAR-3 30.3 µM | LOX IMVI 42 µM | OVCAR-4 9.29 µM | OVCAR-5 31.8 µM

O=C(Nc1ccccc1-c1nn(C(=S)Nc2ccccc2)c(=S)n(C(=S)Nc2ccccc2)c1=O)C(F)(F)F
inactive: SN12C 26.4 µM | UO-31 11.9 µM | CAKI-1 31.4 µM | CCRF-CEM 13.3 µM | Malme-3M 30.5 µM | MOLT-4 7.85 µM | SF-295 31.3 µM | SW-620 23.9 µM | A498 22.1 µM | HCC 2998 25.3 µM | SF-268 26.5 µM | ACHN 24.4 µM | COLO 205 17.5 µM | OVCAR-3 21.6 µM | LOX IMVI 19.8 µM | OVCAR-4 17.1 µM | OVCAR-5 49.9 µM

O=c1[nH]c(=O)n(C2OC(CO)C(O)C2O)cc1OCC(F)(F)F (configuration not stated)
inactive: SN12C > 100 µM | UO-31 > 100 µM | CAKI-1 > 100 µM | CCRF-CEM > 100 µM | Malme-3M > 100 µM | MOLT-4 > 100 µM | SF-295 > 100 µM | SW-620 > 100 µM | A498 > 100 µM | HCC 2998 > 100 µM | SF-268 > 100 µM | ACHN > 100 µM | COLO 205 > 100 µM | OVCAR-3 > 100 µM | LOX IMVI > 100 µM | OVCAR-4 > 100 µM | OVCAR-5 > 100 µM
